Experimental data reported in patent US20180092866A1, “SUBSTITUTED N-([1,1'-BIPHENYL]-3-YL)-[1,1'-BIPHENYL]-3-CARBOXAMIDE ANALOGS AS INHIBITORS FOR BETA-CATENIN/B-CELL LYMPHOMA 9 INTERACTIONS” (University of Utah Research Foundation, priority 2015, published 2018).
Structures can show the parent of a compound that is named as a salt.

Target: T1, β-catenin/BCL9 protein-protein interactions (Homo sapiens, UniProt P35222)
T1 construct: C-terminally His6-tagged wild-type or mutant β-catenin (residues 138-686) proteins; made in house; host or cells: E. coli BL21 DE3
T1 sequence (P35222 138-686): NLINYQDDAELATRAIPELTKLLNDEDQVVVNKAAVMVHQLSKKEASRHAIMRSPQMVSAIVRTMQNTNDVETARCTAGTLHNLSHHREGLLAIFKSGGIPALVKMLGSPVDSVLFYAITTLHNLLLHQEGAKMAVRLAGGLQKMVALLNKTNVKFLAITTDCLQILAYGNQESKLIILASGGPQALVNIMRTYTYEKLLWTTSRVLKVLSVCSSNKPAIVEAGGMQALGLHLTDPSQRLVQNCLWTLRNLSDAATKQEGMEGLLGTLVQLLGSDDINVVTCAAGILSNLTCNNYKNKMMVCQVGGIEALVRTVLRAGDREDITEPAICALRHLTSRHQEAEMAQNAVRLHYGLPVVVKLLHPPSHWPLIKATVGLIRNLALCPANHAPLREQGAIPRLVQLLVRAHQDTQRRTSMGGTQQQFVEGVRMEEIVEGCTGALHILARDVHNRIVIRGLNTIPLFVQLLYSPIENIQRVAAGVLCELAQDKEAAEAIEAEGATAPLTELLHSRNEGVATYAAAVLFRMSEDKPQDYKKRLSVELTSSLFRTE
Assay: AlphaScreen competitive inhibition assay, wild-type β-catenin/BCL9
Type: binding
Conditions: for relative inhibitory potency for β-catenin/BCL9 PPIs (in words): AlphaScreen assay, comparison with named compound; for Ki: wild-type β-catenin (residues 138-686)/biotinylated BCL9 26-mer, Ki derived from IC50, mean ± SD
Method: The purity of the wild-type and mutant β-catenin proteins was all greater than 95% as determined by the SDS-PAGE gel analysis. Both the wild-type and mutant β-catenin proteins are stable under the testing conditions. Native non-denaturing gel electrophoresis was performed to confirm the homogeneity of the purified proteins. Experiments were performed in white opaque 384-well plates from PerkinElmer, and the samples were read on a Synergy 2 plate reader (Biotek) with a sensitivity setting of 200 using AlphaScreen protocol with excitation at 680 nm and emission at 570 nm. All dilutions were made in 1×assay buffer containing 25 mM HEPES (pH=7.0), 100 mM NaCl, 0.01% Triton X-100, and 0.1% BSA. In the AlphaScreen competitive inhibition assay, 40 nM of C-terminally His6-tagged wild-type or mutant β-catenin (residues 138-686) proteins was incubated with 5 nM of N-terminal biotinylated human BCL9 26-mer (residues 350-375) for 30 min at 4° C., and then different concentrations of the tested inhibitors in the assay buffer were added to make a final volume of 20 μL. The mixture was incubated at 4° C. for 2 h. The donor and acceptor beads were added to a final concentration of 10 μg/mL in 25 μL of assay buffer. The mixture was incubated at 4° C. for 1 h. The IC50 value was determined by nonlinear least-square analysis of GraphPad Prism 5.0. […] The Ki values were derived from the IC50 values by a reported method (Nikolovska-Coleska et al. (2004) Anal. Biochem. […]: 261-273). Experiments were performed in triplicate and carried out in the presence of 1% DMSO.

| Structure (SMILES) | relative inhibitory potency for β-catenin/BCL9 PPIs (in words) | Ki [µM] |
| --- | --- | --- |
| Cl.NCc1ccc(C(N)=O)cc1-c1ccc(F)cc1 [Compound 7, (5-Carbamoyl-4′-fluoro-[1,1′-biphenyl]-2-yl)methanaminium chloride] | less potent than 6 | – |
| Cc1cc(F)ccc1-c1cc(NC(=O)c2ccc(O[C@H]3CCNC3)c(-c3ccc(F)c(F)c3)c2)ccc1O[C@H]1CCNC1 [Compound 91j, 3′,4′-Difluoro-N-(4′-fluoro-2′-methyl-6-((S)-pyrrolidin-3-yloxy)-[1,1′-biphenyl]-3-yl)-6-((S)-pyrrolidin-3-yloxy)-[1,1′-biphenyl]-3-carboxamide dihydrochloride] | – | 27.3 ± 4.83 |
| O=C(Nc1ccc(O[C@H]2CCNC2)c(-c2ccc(-c3nn[nH]n3)cc2)c1)c1ccc(O[C@H]2CCNC2)c(-c2ccc(F)c(F)c2)c1 [Compound 91l, 3′,4′-Difluoro-6-((S)-pyrrolidin-3-yloxy)-N-(6-((S)-pyrrolidin-3-yloxy)-4′-(2h-tetrazol-5-yl)-[1,1′-biphenyl]-3-yl)-[1,1′-biphenyl]-3-carboxamide dihydrochloride] | – | 19.9 ± 4.87 |
| O=C(Nc1ccc(O[C@H]2CCNC2)c(-c2ccccc2C(F)(F)F)c1)c1ccc(O[C@H]2CCNC2)c(-c2ccc(F)c(F)c2)c1 [Compound 91d, 3′,4′-Difluoro-6-((S)-pyrrolidin-3-yloxy)-N-(6-((S)-pyrrolidin-3-yloxy)-2′-(trifluoromethyl)-[1,1′-biphenyl]-3-yl)-[1,1′-biphenyl]-3-carboxamide dihydrochloride] | – | 54.8 ± 6.24 |
| COC(=O)c1ccc(OCCNC(=O)OC(C)(C)C)c(-c2ccc(F)cc2)c1 [Compound 31, Methyl-6-(2-((tert-butoxycarbonyl)amino)ethoxy)-4′-fluoro-[1,1′-biphenyl]-3-carboxylate] | – | 180 ± 4.84 |
| NCCOc1ccc(C(=O)Nc2cccc(-c3ccc(F)cc3)c2)cc1-c1ccsc1 [Compound 15, 2-(4-((4′-Fluoro-[1,1′-biphenyl]-3-yl)carbamoyl)-2-(thiophen-3-yl)phenoxy) ethanaminium chloride] | – | 32.4 ± 4.24 |
| CS(=O)(=O)Nc1cccc(C#Cc2cc(NC(=O)c3ccc(O[C@H]4CCNC4)c(-c4ccc(F)c(F)c4)c3)ccc2O[C@H]2CCNC2)c1 [Compound 101] | – | 56.2 ± 7.64 |
| NCCOc1ccc(C(=O)Nc2cccc(-c3ccc(F)cc3)c2)cc1-c1ccc(Cl)c(F)c1 [Compound 14, 2-((4′-Chloro-3′-fluoro-5-((4′-fluoro-[1,1′-biphenyl]-3-yl)carbamoyl)-[1,1′-biphenyl]-2-yl)oxy) ethanaminium chloride] | – | 74 ± 3.48 |
| O=C(Nc1ccc(O[C@@H]2CCNC2)c(-c2ccc(F)cc2)c1)c1ccc(O[C@H]2CCNC2)c(-c2ccc(F)c(F)c2)c1 [Compound 28, (S)-3-((3′,4′-difluoro-5-((4′-fluoro-6-(((R)-pyrrolidin-1-ium-3-yl)oxy)-[1,1′-biphenyl]-3-yl)carbamoyl)-[1,1′-biphenyl]-2-yl)oxy) pyrrolidin-1-ium chloride] | – | 3.41 ± 0.354 |
| O=C(Nc1ccc(O[C@H]2CCNC2)c(-c2ccc(F)cc2)c1)c1ccc(O[C@H]2CCNC2)c(-c2ccc3ccccc3c2)c1 [Compound 25, (S)-3-((4′-fluoro-5-(3-(naphthalen-2-yl)-4-((S)-pyrrolidin-1-ium-3-yloxy)benzamido)-[1,1′-biphenyl]-2-yl)oxy) pyrrolidin-1-ium chloride] | – | 8.45 ± 2.65 |
| NCCOc1ccc(C(=O)Nc2cccc(-c3ccc(Cl)c(F)c3)c2)cc1-c1ccc(F)cc1 [Compound 11, 2-((5-((4′-Chloro-3′-fluoro-[1,1′-biphenyl]-3-yl)carbamoyl)-4′-fluoro-[1,1′-biphenyl]-2-yl)oxy) ethanaminium chloride] | – | 87.1 ± 4.95 |
| Cl.Cl.NCCOc1ccc(NC(=O)c2ccc(OCCN)c(-c3ccc(F)c(F)c3)c2)cc1-c1ccc(F)cc1 [Compound 17, 2-((5-(6-(2-Ammonioethoxy)-3′,4′-difluoro-[1,1′-biphenyl]-3-ylcarboxamido)-4′-fluoro-[1,1′-biphenyl]-2-yl)oxy) ethanaminium chloride] | more potent than 9 and 13 | 6.12 ± 1.53 |
| NC(=O)c1cccc(-c2cc(NC(=O)c3ccc(O[C@H]4CCNC4)c(-c4ccc(F)c(F)c4)c3)ccc2O[C@H]2CCNC2)c1 [Compound 91g, N-(3′-carbamoyl-6-((S)-pyrrolidin-3-yloxy)-[1,1′-biphenyl]-3-yl)-3′,4′-difluoro-6-((S)-pyrrolidin-3-yloxy)-[1,1′-biphenyl]-3-carboxamide dihydrochloride] | – | 162 ± 8.69 |
| Cc1cccc(-c2cc(NC(=O)c3ccc(O[C@H]4CCNC4)c(-c4ccc(F)c(F)c4)c3)ccc2O[C@H]2CCNC2)c1 [Compound 91b, 3′,4′-Difluoro-N-(3′-methyl-6-((S)-pyrrolidin-3-yloxy)-[1,1′-biphenyl]-3-yl)-6-((S)-pyrrolidin-3-yloxy)-[1,1′-biphenyl]-3-carboxamide dihydrochloride] | – | 40.8 ± 5.94 |
| O=C(Nc1cnc(O[C@H]2CCNC2)c(-c2ccc(F)cc2)c1)c1ccc(O[C@H]2CCNC2)c(-c2ccc(F)c(F)c2)c1 [Compound 84a, 3′,4′-Difluoro-N-(5-(4-fluorophenyl)-6-((S)-pyrrolidin-3-yloxy)pyridin-3-yl)-6-((S)-pyrrolidin-3-yloxy)-[1,1′-biphenyl]-3-carboxamide dihydrochloride] | – | 78.6 ± 10.4 |
| O=C(Nc1ccc(O[C@H]2CCNC2)c(-c2ccc(F)cc2)c1)c1ccc(O[C@@H]2CCNC2)c(-c2ccc(F)c(F)c2)c1 [Compound 27, (R)-3-((3′,4′-difluoro-5-((4′-fluoro-6-(((S)-pyrrolidin-1-ium-3-yl)oxy)-[1,1′-biphenyl]-3-yl)carbamoyl)-[1,1′-biphenyl]-2-yl)oxy) pyrrolidin-1-ium chloride] | – | 5.6 ± 0.514 |
| Cl.NCCOc1ccc(C(=O)Nc2cccc(-c3ccc(F)cc3)c2)cc1-c1ccc(F)c(F)c1 [Compound 13, 2-((3′,4′-Difluoro-5-((4′-fluoro-[1,1′-biphenyl]-3-yl)carbamoyl)-[1,1′-biphenyl]-2-yl)oxy) ethanaminium chloride] | higher potency than 14 | 29.3 ± 3.85 |
| O=C(Nc1ccc(OC2CNC2)c(-c2ccc(F)cc2)c1)c1ccc(OC2CNC2)c(-c2ccc(F)c(F)c2)c1 [Compound 22, 3-((5-(6-(azetidin-1-ium-3-yloxy)-3′,4′-difluoro-[1,1′-biphenyl]-3-ylcarboxamido)-4′-fluoro-[1,1′-biphenyl]-2-yl)oxy)azetidin-1-ium chloride] | – | 17 ± 1.99 |
| Cc1cc(C(=O)Nc2ccc(O[C@H]3CCNC3)c(-c3ccc(F)cc3)c2)ccc1O[C@H]1CCNC1 [Compound 24, (S)-3-((4′-fluoro-5-(3-methyl-4-((S)-pyrrolidin-1-ium-3-yloxy)benzamido)-[1,1′-biphenyl]-2-yl)oxy) pyrrolidin-1-ium chloride] | – | 201 ± 9.29 |
| O=C(Nc1ccc(O[C@H]2CCNC2)c(-c2ccc(F)cc2)c1)c1cnc(O[C@H]2CCNC2)c(-c2ccc(F)c(F)c2)c1 [Compound 84b, 5-(3,4-difluorophenyl)-N-(4′-fluoro-6-((S)-pyrrolidin-3-yloxy)-[1,1′-biphenyl]-3-yl)-6-((S)-pyrrolidin-3-yloxy)nicomide dihydrochloride] | – | 84.2 ± 14.8 |
| N#Cc1cccc(-c2cc(NC(=O)c3ccc(O[C@H]4CCNC4)c(-c4ccc(F)c(F)c4)c3)ccc2O[C@H]2CCNC2)c1 [Compound 91e, N-(3′-cyano-6-((S)-pyrrolidin-3-yloxy)-[1,1′-biphenyl]-3-yl)-3′,4′-difluoro-6-((S)-pyrrolidin-3-yloxy)-[1,1′-biphenyl]-3-carboxamide dihydrochloride] | – | 25.9 ± 5.58 |
| NS(=O)(=O)c1ccc(-c2cc(NC(=O)c3ccc(O[C@H]4CCNC4)c(-c4ccc(F)c(F)c4)c3)ccc2O[C@H]2CCNC2)cc1 [Compound 91i, 3′,4′-Difluoro-6-((S)-pyrrolidin-3-yloxy)-N-(6-((S)-pyrrolidin-3-yloxy)-4′-sulfamoyl-[1,1′-biphenyl]-3-yl)-[1,1′-biphenyl]-3-carboxamide dihydrochloride] | – | 11.1 ± 1.16 |
